Results published in patent US20210069145A1, “COMPOSITIONS AND METHODS FOR REDUCING A FATTY ACID DESATURATION INDEX IN A SUBJECT IN NEED THEREOF” (Amarin Pharmaceuticals Ireland Limited, priority 2013, published 2021).

Test system: Lipoprotein Particle Concentrations
Assay: Lipoprotein particle concentrations, 12-week double-blind placebo-controlled study of >96% E-EPA in statin-treated patients
Assay type: in vivo, human
Conditions: 12 weeks; for IDL, Change From Baseline, % / IDL, End of Treatment / Large HDL, Change From Baseline, % / Large HDL, End of Treatment / Large LDL, Change From Baseline, % / Large LDL, End of Treatment / Large VLDL, Change From Baseline, % / Large VLDL, End of Treatment / Medium HDL, Change From Baseline, % / Medium HDL, End of Treatment / Medium VLDL, Change From Baseline, % / Medium VLDL, End of Treatment / Small HDL, Change From Baseline, % / Small HDL, End of Treatment / Small LDL, Change From Baseline, % / Small LDL, End of Treatment / Small VLDL, Change From Baseline, % / Small VLDL, End of Treatment / Total HDL, Change From Baseline, % / Total HDL, End of Treatment / Total LDL, Change From Baseline, % / Total LDL, End of Treatment / Total VLDL, Change From Baseline, % / Total VLDL, End of Treatment: median
Protocol: A multi-center, placebo-controlled, randomized, double-blind, 12-week study was performed to evaluate the efficacy and safety of >96% E-EPA in patients with fasting triglyceride levels ≥200 mg/dl and <500 mg/dl despite statin therapy (the mean of two qualifying entry values needed to be ≥185 mg/dl and at least one of the values needed to be ≥200 mg/dl). The primary objective of the study was to determine the efficacy of >96% E-EPA 2 g daily and 4 g daily, compared to placebo, in lowering fasting TG levels in patients with high risk for cardiovascular disease and with fasting TG levels ≥200 mg/dl and <500 mg/dl, despite treatment to LDL-C goal on statin therapy.
The population for this study was men and women >18 years of age with a body mass index ≤45 kg/m^2 with fasting TG levels greater than or equal to 200 mg/dl and less than 500 mg/dl and on a stable does of statin therapy (with or without ezetimibe). The statin was atorvostatin, rosuvastatin or simvastatin. The dose of statin must have been stable for ≥4 weeks prior to the LDL-C/TG baseline qualifying measurement for randomization. The statin dose was optimized such that the patients are at their LDL-C goal at the LDL-C/TG baseline qualifying measurements. The same statin at the same dose was continued until the study ended.
Approximately 702 patients were randomized at approximately 80 centers in the U.S. The study was a 18- to 20-week, Phase 3, multi-center study consisting of 2 study periods: (1) A 6- to 8-week screening period that included a diet and lifestyle stabilization, a non-statin lipid-altering treatment washout, and an LDL-C and TG qualifying period and (2) A 12-week, double-blind, randomized, placebo-controlled treatment period.
After confirmation of qualifying fasting LDL-C and TG values, eligible patients entered a 12-week, randomized, double-blind treatment period. At Visit 4 (Week 0), patients were randomly assigned to 1 of the following treatment groups: • >96% E-EPA 2 g daily, • >96% E-EPA 4 g daily, or • Placebo.
During the double-blind treatment period, patients were to take 2 capsules (>96% E-EPA or matching placebo) in the morning and 2 capsules in the evening for a total of 4 capsules per day. • Patients in the >96% E-EPA 2 g/day treatment group received 1>96% E-EPA 1 g capsule and 1 matching placebo capsule in the morning and in the evening. • Patients in the >96% E-EPA 4 g/day treatment group received 2>96% E-EPA 1 g capsules in the morning and evening.
The primary efficacy variable for the double-blind treatment period was percent change in TG from baseline to Week 12 endpoint. The secondary efficacy variables for the double-blind treatment period included the following: • Percent changes in total cholesterol (TC), high-density lipoprotein cholesterol (HDL-C), LDL-C, calculated non-HDL-C, and very low-density lipoprotein cholesterol (VLDL-C) from baseline to Week 12 endpoint; • Percent change in very low-density lipoprotein TG from baseline to Week 12; • Percent changes in apolipoprotein A-I (apo A-I), apolipoprotein B (apo B), and apo A-I/apo B ratio from baseline to Week 12; • Percent changes in lipoprotein(a) from baseline to Week 12; • Percent changes in LDL particle number and size, measured by nuclear magnetic resonance, from baseline to Week 12; • Percent change in remnant-like particle cholesterol from baseline to Week 12; • Percent change in oxidized LDL from baseline to Week 12; • Changes in FPG and HbA1c from baseline to Week 12; • Change in insulin resistance, as assessed by the homeostasis model index insulin resistance, from baseline to Week 12; • Percent change in lipoprotein associated phospholipase A2 (Lp-PLA2) from baseline to Week 12; • Change in intracellular adhesion molecule-1 from baseline to Week 12; • Change in interleukin-2 from baseline to Week 12; • Change in plasminogen activator inhibitor-1 from baseline to Week 12. […]

[1] = 2 g/day, placebo-adjusted Hodges-Lehmann median
[2] = 4 g/day, placebo-adjusted Hodges-Lehmann median
[3] = 4 g/day, placebo-adjusted Hodges-Lehmann median, listed as Ethyl Eicosapentaenoate
[4] = 4 g/day, placebo-adjusted Hodges-Lehmann median, listed as IPE

Structure (SMILES): CC/C=C\C/C=C\C/C=C\C/C=C\C/C=C\CCCC(=O)OCC [ethyl eicosapentaenoate, all-cis eicosa-5,8,11,14,17-pentaenoic acid ethyl ester]
- IDL, Change From Baseline, % (2 g/day, n = 222): 10.5%
- IDL, End of Treatment (2 g/day, n = 222): 63.5 nmol/L
- Large HDL, Change From Baseline, % (2 g/day, n = 222): −4.0%
- Large HDL, End of Treatment (2 g/day, n = 222): 2.4 µmol/L
- Large LDL, Change From Baseline, % (2 g/day, n = 222): 47.7%
- Large LDL, End of Treatment (2 g/day, n = 222): 202.0 nmol/L
- Large VLDL, Change From Baseline, % (2 g/day, n = 222): −19.7%
- Large VLDL, End of Treatment (2 g/day, n = 222): 10.0 nmol/L
- Medium HDL, Change From Baseline, % (2 g/day, n = 222): 2.9%
- Medium HDL, End of Treatment (2 g/day, n = 222): 7.2 µmol/L
- Medium VLDL, Change From Baseline, % (2 g/day, n = 222): 7.9%
- Medium VLDL, End of Treatment (2 g/day, n = 222): 59.6 nmol/L
- Small HDL, Change From Baseline, % (2 g/day, n = 222): −0.6%
- Small HDL, End of Treatment (2 g/day, n = 222): 23.8 µmol/L
- Small LDL, Change From Baseline, % (2 g/day, n = 222): −4.3%
- Small LDL, End of Treatment (2 g/day, n = 222): 920.5 nmol/L
- Small VLDL, Change From Baseline, % (2 g/day, n = 222): 22.1%
- Small VLDL, End of Treatment (2 g/day, n = 222): 49.6 nmol/L
- Total HDL, Change From Baseline, % (2 g/day, n = 222): 0.7%
- Total HDL, End of Treatment (2 g/day, n = 222): 34.7 µmol/L
- Total LDL, Change From Baseline, % (2 g/day, n = 222): 4.7%
- Total LDL, End of Treatment (2 g/day, n = 222): 1215 nmol/L
- Total VLDL, Change From Baseline, % (2 g/day, n = 222): 12.0%
- Total VLDL, End of Treatment (2 g/day, n = 222): 122.4 nmol/L
- IDL, Median Change From Baseline IPE 2 g/day vs Placebo, % [1]: 8.6%
- Large HDL, Median Change From Baseline IPE 2 g/day vs Placebo, % [1]: −13.5%
- Large LDL, Median Change From Baseline IPE 2 g/day vs Placebo, % [1]: 26.5%
- Large VLDL, Median Change From Baseline IPE 2 g/day vs Placebo, % [1]: −24.2%
- Medium HDL, Median Change From Baseline IPE 2 g/day vs Placebo, % [1]: −4.5%
- Medium VLDL, Median Change From Baseline IPE 2 g/day vs Placebo, % [1]: 2.6%
- Small HDL, Median Change From Baseline IPE 2 g/day vs Placebo, % [1]: −0.2%
- Small LDL, Median Change From Baseline IPE 2 g/day vs Placebo, % [1]: −14.7%
- Small VLDL, Median Change From Baseline IPE 2 g/day vs Placebo, % [1]: 16.5%
- Total HDL, Median Change From Baseline IPE 2 g/day vs Placebo, % [1]: −3.1%
- Total LDL, Median Change From Baseline IPE 2 g/day vs Placebo, % [1]: −7.5%
- Total VLDL, Median Change From Baseline IPE 2 g/day vs Placebo, % [1]: 1.8%
- reduction of median concentration of small LDL particles over baseline when adjusted for placebo control (4 g per day): 13.5%
- reduction of median concentration of total HDL over baseline when adjusted for placebo (4 g per day): 7.4%
- reduction of median concentration of total LDL over baseline when adjusted for placebo (4 g per day): 7.7%
- reduction of median concentration of total VLDL over baseline when adjusted for placebo (4 g per day): 12.2%
- IDL, Change From Baseline, % (4 g/day, n = 216): 23.7%
- IDL, End of Treatment (4 g/day, n = 216): 63.0 nmol/L
- Large HDL, Change From Baseline, % (4 g/day, n = 216): −21.6%
- Large HDL, End of Treatment (4 g/day, n = 216): 1.9 µmol/L
- Large LDL, Change From Baseline, % (4 g/day, n = 216): 55.2%
- Large LDL, End of Treatment (4 g/day, n = 216): 172.5 nmol/L
- Large VLDL, Change From Baseline, % (4 g/day, n = 216): −41.9%
- Large VLDL, End of Treatment (4 g/day, n = 216): 7.7 nmol/L
- Medium HDL, Change From Baseline, % (4 g/day, n = 216): 4.2%
- Medium HDL, End of Treatment (4 g/day, n = 216): 6.9 µmol/L
- Medium VLDL, Change From Baseline, % (4 g/day, n = 216): −6.9%
- Medium VLDL, End of Treatment (4 g/day, n = 216): 49.7 nmol/L
- Small HDL, Change From Baseline, % (4 g/day, n = 216): −3.9%
- Small HDL, End of Treatment (4 g/day, n = 216): 23.1 µmol/L
- Small LDL, Change From Baseline, % (4 g/day, n = 216): −1.1%
- Small LDL, End of Treatment (4 g/day, n = 216): 902.5 nmol/L
- Small VLDL, Change From Baseline, % (4 g/day, n = 216): 8.3%
- Small VLDL, End of Treatment (4 g/day, n = 216): 46.8 nmol/L
- Total HDL, Change From Baseline, % (4 g/day, n = 216): −4.0%
- Total HDL, End of Treatment (4 g/day, n = 216): 32.6 µmol/L
- Total LDL, Change From Baseline, % (4 g/day, n = 216): 3.8%
- Total LDL, End of Treatment (4 g/day, n = 216): 1191 nmol/L
- Total VLDL, Change From Baseline, % (4 g/day, n = 216): −2.5%
- Total VLDL, End of Treatment (4 g/day, n = 216): 110.0 nmol/L
- IDL, Median Change From Baseline IPE 4 g/day vs Placebo, % [2]: 10.0%
- Large HDL, Median Change From Baseline IPE 4 g/day vs Placebo, % [2]: significantly reduced
- Large LDL, Median Change From Baseline IPE 4 g/day vs Placebo, % [2]: increased
- Large VLDL, Median Change From Baseline IPE 4 g/day vs Placebo, % [2]: significantly reduced
- Medium HDL, Median Change From Baseline IPE 4 g/day vs Placebo, % [2]: −6.5%
- Medium VLDL, Median Change From Baseline IPE 4 g/day vs Placebo, % [2]: significantly reduced
- Small HDL, Median Change From Baseline IPE 4 g/day vs Placebo, % [2]: −2.8%
- Small LDL, Median Change From Baseline IPE 4 g/day vs Placebo, % [2]: significantly reduced
- Small VLDL, Median Change From Baseline IPE 4 g/day vs Placebo, % [2]: 2.8%
- Total HDL, Median Change From Baseline IPE 4 g/day vs Placebo, % [2]: significantly reduced
- Total LDL, Median Change From Baseline IPE 4 g/day vs Placebo, % [2]: significantly reduced
- Total VLDL, Median Change From Baseline IPE 4 g/day vs Placebo, % [2]: significantly reduced
- Small LDL, Median Change From Baseline IPE 4 g/day vs Placebo, % [3]: −13.5%
- Total HDL, Median Change From Baseline IPE 4 g/day vs Placebo, % [3]: −7.4%
- Total LDL, Median Change From Baseline IPE 4 g/day vs Placebo, % [3]: −7.7%
- Total VLDL, Median Change From Baseline IPE 4 g/day vs Placebo, % [3]: −12.2%
- Large HDL, Median Change From Baseline IPE 4 g/day vs Placebo, % [4]: −31.0%
- Large LDL, Median Change From Baseline IPE 4 g/day vs Placebo, % [4]: 34.2%
- Large VLDL, Median Change From Baseline IPE 4 g/day vs Placebo, % [4]: −46.4%
- Medium VLDL, Median Change From Baseline IPE 4 g/day vs Placebo, % [4]: −12.1%
- Small LDL, Median Change From Baseline IPE 4 g/day vs Placebo, % [4]: −13.5%
- Total HDL, Median Change From Baseline IPE 4 g/day vs Placebo, % [4]: −7.4%
- Total LDL, Median Change From Baseline IPE 4 g/day vs Placebo, % [4]: −7.7%
- Total VLDL, Median Change From Baseline IPE 4 g/day vs Placebo, % [4]: −12.2%
